{"source": "patent US6545039B1", "about": "(Viatris GmbH & Co. KG, priority 1999, dated 2003)", "experiment": "Tolerability of intravenous infusion rates in healthy subjects", "type": "in vivo, human", "conditions": "i.v., all infusion rates used (100, 200, 600 mg/min)", "text": "The following results were obtained here. 1."}
{"smiles": "O=C(O)CCCCC1CCSS1", "note": "(stereo not drawn) [α-lipoic acid]", "values": [{"measurement": "tolerability of infusion rate", "value": "excellently tolerated"}]}
